Reference: patent publication US11344552B2, “Methods for treating metastatic pancreatic cancer using combination therapies comprising liposomal irinotecan and oxaliplatin” (Ipsen Biopharm Ltd., priority 2015, dated 2022)
Like-named read-outs stand apart in the source and are kept apart here.

Experiments:
[1] = test system: PDX 19015 pancreatic cancer xenograft; test: Patient-derived xenograft (PDX #19015) pancreatic cancer mouse efficacy model; format: in vivo; details: FIG. 6D, relative to the control group
Description: Treatment doses are indicated in the figure beside each treatment, and were given 4 times.
Significance was determined by ordinary 2-way analysis of variance (ANOVA). The regimens were administered on days 0, 7, 14 and 21 of the study.
Female CB.17 SCID mice were obtained from Roswell Park Cancer Institute (Buffalo, N.Y.), initially at 6-8 weeks of age. Per treatment group, 8 animals were treated, unless otherwise indicated. Tumor pieces were derived from donor mice and engrafted subcutaneously.
5-FU was administered intraperitoneally. […] Tolerability: Mouse weights were measured once weekly to monitor treatment tolerability.

[2] = cited from earlier work
[3] = Delayed dosing of oxaliplatin: tolerability, hematologic and liver toxicities in naive CD-1 mice; details: intravenous, pre-defined
Description: Tolerability studies were performed in naïve (non-tumor-bearing) mice. Three animals were treated per group.
Each drug was administered individually, or in combination. […] A single administration of each drug was given. Mouse body weights were measured daily for up to 2 weeks post-treatment.
Measurement of hematologic and liver toxicities: At the end of study, terminal bleeds were performed for each mouse via cardiac puncture. Hematologic function (blood cell count) was measured by Hemavet (Drew Scientific, Miami Lakes, Fla.), according to manufacturer's protocol. Liver function (enzyme levels) was measured by CatalystDx (Idexx Laboratories, Westbrook, Me.) according to the manufacturer's protocol.

[4] = test system: pancreatic cell lines (AsPC-1, BxPC-3, Capan-2, CFPAC-1, and MiaPaCa-2); test: In vitro cell growth inhibition by SN-38 exposure duration in a panel of pancreatic cell lines; details: SN-38 combined with 5-FU or oxaliplatin; prolonged vs short exposure
topoisomerase I = biological target: T1, topoisomerase I (Homo sapiens, UniProt P11387); details: metabolite formed by nonspecific carboxylesterases; cited from earlier work
T1 sequence (P11387 1-765): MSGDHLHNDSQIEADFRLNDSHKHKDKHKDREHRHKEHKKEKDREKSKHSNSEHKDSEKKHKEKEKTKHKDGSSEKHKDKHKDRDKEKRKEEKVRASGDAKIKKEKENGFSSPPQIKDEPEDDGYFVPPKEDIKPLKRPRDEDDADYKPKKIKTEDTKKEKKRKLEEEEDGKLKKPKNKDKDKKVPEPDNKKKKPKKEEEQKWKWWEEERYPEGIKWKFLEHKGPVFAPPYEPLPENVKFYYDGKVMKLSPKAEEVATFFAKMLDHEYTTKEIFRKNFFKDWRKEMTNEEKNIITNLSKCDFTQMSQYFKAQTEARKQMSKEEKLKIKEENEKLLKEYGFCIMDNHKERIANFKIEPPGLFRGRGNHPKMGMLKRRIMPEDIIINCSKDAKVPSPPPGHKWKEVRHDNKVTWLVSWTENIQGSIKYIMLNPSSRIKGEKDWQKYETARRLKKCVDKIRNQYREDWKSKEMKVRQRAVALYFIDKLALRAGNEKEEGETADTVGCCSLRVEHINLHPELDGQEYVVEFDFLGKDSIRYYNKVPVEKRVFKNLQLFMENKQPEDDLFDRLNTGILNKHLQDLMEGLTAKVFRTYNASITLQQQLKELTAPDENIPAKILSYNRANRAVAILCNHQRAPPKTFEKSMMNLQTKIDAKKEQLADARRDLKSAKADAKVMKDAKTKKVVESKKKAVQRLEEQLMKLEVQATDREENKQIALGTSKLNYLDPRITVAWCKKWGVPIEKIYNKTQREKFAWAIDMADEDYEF

[5] = Phase 3 study of the FOLFIRINOX combination; cited from earlier work

CCc1c2c(nc3ccc(OC(=O)N4CCC(N5CCCCC5)CC4)cc13)-c1cc3c(c(=O)n1C2)COC(=O)[C@]3(O)CC [irinotecan, (S)-4,11-diethyl-3,4,12,14-tetrahydro-4-hydroxy-3,14-dioxo1H-pyrano[3′,4′: 6,7]-indolizino[1,2-b]quinolin-9-yl-[1,4′bipiperidine]-1′-carboxylate]
overall survival [1]: No benefit of added 5-FU or oxaliplatin | incidence of grade 4 neutropenia ([2]; patients heterozygous for UGT1A1*28 (6/7 genotype), single-agent irinotecan 350 mg/m^2 once every-3-weeks): 12.5% | incidence of grade 4 neutropenia ([2]; patients homozygous for the UGT1A1*28 allele, single-agent irinotecan 350 mg/m^2 once every-3-weeks): 50% | incidence of grade 4 neutropenia ([2]; patients homozygous for the wild-type allele (UGT1A1 6/6 genotype)): no grade 4 neutropenia was observed

O=C(O)C(=O)O.[NH-][C@@H]1CCCC[C@H]1[NH-].[Pt+2] [oxaliplatin]
maximum tolerated dose [3]: 17 mg/kg

CCc1c2c(nc3ccc(O)cc13)-c1cc3c(c(=O)n1C2)COC(=O)[C@]3(O)CC [SN-38]
cell growth inhibition [4]: prolonged exposure also led to increased cell growth inhibition | activity relative to irinotecan (topoisomerase I): 100-1000 fold

FOLFIRINOX
incidence of most common Grade 3-4 adverse events (neutropenia, fatigue, vomiting, diarrhea, thrombocytopenia, sensory neuropathy, anemia, elevated ALT, thromboembolism, febrile neutropenia) [5]: > 5%
